Columns and labels:
[1] = Franz cell permeability of semaglutide; settings: Franz cells, porcine duodenal tissue
Description: Franz cells were used for testing different permeation enhancers on ex vivo tissue from the small intestine, such as porcine duodenal tissue (or colon tissue where indicated). Water pumps were attached to the Franz cell rack to maintain each Franz cell at 37° C. The racks were loaded with Franz cells, and each cell was filled with 5 mL of phosphate buffered saline. Tissue was cut into ˜3.2×3.2 cm squares and any large clumps of mucus or excrement was removed before mounting onto the Franz cells. Next, gastrointestinal synthetic epithelial lining (GSEL) solutions were prepared by first weighing out dopamine HCl, polydopamine, and a permeation enhancer into a vial. […] Samples from the receiving compartment was periodically collected from 0 to 24 hours and the concentration of API was measured. […]
The same experiment was carried out, except without using a permeation enhancer in the GSEL solution. The amount of API detected in the receiving compartment for GSELS with permeation enhancer was compared to the amount of API detected in the receiving compartment for GSELs without permeation enhancer at each time point to determine the increase in permeation provided by the permeation enhancer.

[2] = pig model, semaglutide pharmacokinetics after endoscopic placement or IV; parameters: species or system Yorkshire pigs; settings: in vivo, 1.5 mg/kg
Description: Yorkshire pigs, weighing 40-80 kg each over 7 months and approximately 4-9 months of age were used. Following routine preoperative fast, pigs were anesthetized, intubated, and maintained on isoflurane anesthesia during the procedure. An indwelling marginal ear vein catheter was be inserted for blood collection, which occurred over 1-7 days. Dry GSEL powders containing permeation enhancers and semaglutide were solubilized with Tris buffer immediately before administration. An endoscope guided catheter was placed into the proximal small intestines, where the GSEL suspensions were injected. Blood was taken periodically from the ear vein catheter and the blood was immediately centrifuged down in serum collection tubes. Samples were analyzed via ELISA and LC-MS. Pigs were woken up after 6 hours and monitored until full recovery.
For the following experiment, a ratio of formulation components as presented in Table E8 was used (e.g., 2×GSEL, 6.4 mg/kg GCA, 6.4 mg/kg NHCO, with semaglutide at a final ratio of 20:2.35 permeation enhancer to semaglutide).

Structure (SMILES) | semaglutide permeability, comparison in words [1] | absorption, in words [2]
O=C([O-])CCCCCCCNC(=O)c1ccccc1O.[Na+] [SNAC, sodium N-[8-(2-hydroxybenzoyl)amino]caprylate] | did not promote permeation of semaglutide as much | 
CC[C@H](C)[C@H](NC(=O)[C@H](Cc1ccccc1)NC(=O)[C@H](CCC(=O)O)NC(=O)[C@H](CCCCNC(=O)COCCOCCNC(=O)COCCOCCNC(=O)CC[C@H](NC(=O)CCCCCCCCCCCCCCCCC(=O)O)C(=O)O)NC(=O)[C@H](C)NC(=O)[C@H](C)NC(=O)[C@H](CCC(N)=O)NC(=O)CNC(=O)[C@H](CCC(=O)O)NC(=O)[C@H](CC(C)C)NC(=O)[C@H](Cc1ccc(O)cc1)NC(=O)[C@H](CO)NC(=O)[C@H](CO)NC(=O)[C@@H](NC(=O)[C@H](CC(=O)O)NC(=O)[C@H](CO)NC(=O)[C@@H](NC(=O)[C@H](Cc1ccccc1)NC(=O)[C@@H](NC(=O)CNC(=O)[C@H](CCC(=O)O)NC(=O)C(C)(C)NC(=O)[C@@H](N)Cc1cnc[nH]1)[C@@H](C)O)[C@@H](C)O)C(C)C)C(=O)N[C@@H](C)C(=O)N[C@@H](Cc1c[nH]c2ccccc12)C(=O)N[C@@H](CC(C)C)C(=O)N[C@H](C(=O)N[C@@H](CCCNC(=N)N)C(=O)NCC(=O)N[C@@H](CCCNC(=N)N)C(=O)NCC(=O)O)C(C)C [Control (semaglutide only), semaglutide] |  | zero absorption
